In general, MIC refers to the lowest concentration found to suppress growth.

The text below walks through data of patent US20070167408A1, “NOVEL ALKYL PHOSPHOLIPID DERIVATIVES WITH REDUCED CYTOTOXICITY AND USES THEREOF” (ZENTARIS GmbH, priority 2005, published 2007).

In brackets after ≈: the same amount, converted by molar mass.

Experiment [1] concerns Streptococcus pneumoniae DSM 11967 (ATCC 49619). The experiment is described as follows: Anti-bacterial bouillon microdilution assay (MIC), bacterium B. The experiment is classed as cell-based. To be noted: Streptococcus pneumoniae DSM 11967, 24 h. As for the experimental part: (§1) Selected compounds of the invention were tested in a bouillon microdilution assay method according to the DIN 58940 (www.din.de) guidelines for determination of susceptibility of bacterial strains with regard to cell growth inhibition. The assay method quantifies bacterial cell growth which corresponds to the turbidity of the liquid culture medium by photometric measurement carried out at 595 nm.
(§2) The method of MIC determination was performed according to DIN 58940-5. The volumina were adapted according to the microdilution method as described in DIN 58940-7 guideline.
(§3) Dependent on water solubility, compounds of the invention were dissolved either in water or ethanol in a concentration of 10 mg/ml. Subsequently, the stock was further diluted in water to a concentration of 512 μg/ml. The following serial dilutions (factor 2) were performed in water resulting in the following […] testing concentrations: 256 μg/ml, 128 μg/ml, 64 μg/ml, 32 μg/ml, 16 μg/ml, 8 μg/ml, 4 μg/ml, 2 μg/ml, 1 μg/ml, 0.5 μg/ml, 0.25 μg/ml and 0.125 μg/ml. Diluted compounds of the invention were transferred in 100 μl volume to the microtiter plate wells.
(§4) Pre-cultures of bacteria were grown in appropriate liquid media (refer to ATCC webpage, www.atcc.org) and afterwards were inoculated in corresponding liquid medium. 100 μl of the inoculums [adjusted to an amount of app. 1×10^6 microorganisms per ml (range of 10^5-10^8 microorganisms per ml)] were added to each of the testing compound concentrations and cultivated under the appropriate conditions.
(§5) Before and after incubation, bacterial growth was determined by photometric analysis against a positive control containing growing bacteria without compound and a sterile/negative control containing only the medium.
In general terms: Broth dilution looks for growth in wells or tubes with falling amounts of substance.

In experiment [2] the test system is Moraxella catarrhalis DMS 11994 (ATCC 43617). The experiment is described as follows: Anti-bacterial bouillon microdilution assay (MIC), bacterium D. The experiment is classed as cell-based. To be noted: ATCC43617, 24 h. The procedure, abridged: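 Broth microdilution MIC per DIN 58940-5/-7. Twofold compound dilutions in water spanned 256 to 0.125 μg/ml in the test concentration series, with inocula of about 1×10^6 organisms/ml in strain-appropriate media. Growth was read as turbidity at 595 nm before and after incubation, against growth and sterile controls.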

Experiment [3] has as its system SKOV-3 (human ovary adenocarcinoma) cells. The experiment is described as follows: XTT cytotoxicity assay, SKOV-3 cells. The experiment is classed as cell-based. To be noted: Homo sapiens, SK-OV-3, second set of experiments, read-out: SKOV-3 % INH [100 μM]. As to the method: On the first day of the experiment cells were harvested from exponential phase cultures by trypsination, counted and plated into 96 well flat-bottom micro titer plates depending on the cell line as listed below: [table] After a 24 h recovery to allow the cells to resume exponential growth, the test compounds were diluted immediately prior to use and transferred in 25 μl volume to the wells. Following 2 days of continuous drug exposure 50 μl of freshly prepared XTT-PMS solution {2% 0.386 mg/ml PMS (N-Methyl Dibenzopyrazine Methylsulphate; Sigma, Cat. No. […] Serva, Cat. No. 38450) in RPMI 1640 medium without phenol red} was added to the wells. To measure the proportion of living cells, the cells were incubated for 3 h with XTT-PMS reagent at 37° C., 5% CO2, humidified atmosphere allowing to form the formazan salt. […] Inhibition curves were generated and IC50 values calculated by using GraphPad Prism.
(In general: Tetrazolium dyes change colour on reduction, which living cells bring about.)

The subject of experiment [4] is Streptococcus pneumoniae DSM 20566 (ATCC 33400). The experiment can be described thus: Anti-bacterial bouillon microdilution assay (MIC), bacterium A. The experiment is classed as cell-based. To be noted: Streptococcus pneumoniae DSM 20566, 24 h. As to the method:
as §1, §2, §3, §4, §5

Experiment [5] concerns RKOp21 (human colon adenocarcinoma) cells. The experiment can be described thus: XTT cytotoxicity assay, RKOp21 cells. It is filed as cell-based. To be noted: Homo sapiens; 31.6 μM, second set of experiments; read-out: RKOp21 % INH [31.6 μM]. The procedure, abridged:
(§6)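 Cells recovered 24 h after plating, then exposed to compounds for 48 h at 37 °C; one set used 10 semi-log concentrations from 100 μM, another 31.6 μM final for PC3 and RKOp21. XTT-PMS added for 3 h, formazan absorbance at 490 nm versus untreated cells; IC50 from inhibition curves.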

The test system of experiment [6] is PC3 (human prostate carcinoma) cells. The experiment can be described thus: XTT cytotoxicity assay, PC3 cells. The experiment is classed as cell-based. To be noted: Homo sapiens, PC-3; 31.6 μM, second set of experiments; read-out: PC3 % INH [31.6 μM]. The method in brief:
as §6

The subject of experiment [7] is PC3, RKOp21 and SKOV-3 cell lines. The experiment is described as follows: XTT cytotoxicity assay, mean over all three cell lines. It is filed as cell-based, human. To be noted: mean value over all three cell lines. As for the experimental part:
Following 2 days of continuous drug exposure 50 μl of freshly prepared XTT-PMS solution {2% 0.386 mg/ml PMS (N-Methyl Dibenzopyrazine Methylsulphate; Sigma, Cat. No. […] Serva, Cat. No. 38450) in RPMI 1640 medium without phenol red} was added to the wells. To measure the proportion of living cells, the cells were incubated for 3 h with XTT-PMS reagent at 37° C., 5% CO2, humidified atmosphere allowing to form the formazan salt. […] Inhibition curves were generated and IC50 values calculated by using GraphPad Prism. In the following table 7 cytotoxicity results (% inhibition of cell growth) obtained in the second set of experiments for selected compounds of the invention are presented in comparison to examples of the prior art (perifosine, miltefosine). The results presented are individual values for the respective cell line as well as the mean value over all three cell lines tested.

Experiment [8] concerns Enterococcus faecium DSM 20477 (ATCC 19434). The experiment is described as follows: Anti-bacterial bouillon microdilution assay (MIC), bacterium C. It is filed as cell-based. To be noted: Enterococcus faecium DSM 20477, 24 h. As for the experimental part: as §1, §2
Dependent on water solubility, compounds of the invention were dissolved either in water or ethanol in a concentration of 10 mg/ml. Subsequently, the stock was further diluted in water to a concentration of 512 μg/ml. The following serial dilutions (factor 2) were performed in water resulting in the following […] testing concentrations: 256 μg/ml, 128 μg/ml, 64 μg/ml, 32 μg/ml, 16 μg/ml, 8 μg/ml, 4 μg/ml, 2 μg/ml, 1 μg/ml, 0.5 μg/ml, 0.25 μg/ml and 0.125 μg/ml. Diluted compounds of the invention were transferred in 100 μl volume to the microtiter plate wells. […]
as §5

In experiment [9] the test system is Bacteroides fragilis DSM 2151 (ATCC 25285). The experiment can be described thus: Anti-bacterial bouillon microdilution assay (MIC), bacterium E. It is filed as cell-based. To be noted: anaerob, 24 h. As for the experimental part: as §1, §2, §3, §4, §5
The test system of experiment [10] is epimastigotes of Trypanosoma cruzi strain Y. The experiment is described as follows: In vitro activity of miltefosine and benznidazole against epimastigotes. To be noted: 72 h. The experiment is classed as cell-based. As for the experimental part:
In vitro activity of Miltefosine and Benznidazole in the course of a combination treatment against Trypanosoma cruzi strain Y was assessed compared to the respective single treatments with miltefosine or benznidazole alone.
Miltefosine and Benznidazol were tested in vitro in combination against epimastigote forms of Trypanosoma cruzi strain Y which were isolated from a chagasic patient in Sao Paulo, Brazil and obtained from Dr. Victor Nussenzweig (Silva, L H. and Nussenzweig, V.; Folia clin. biol., 20: 191-207, 1953). This T. cruzi Y strain can also be ordered at ATCC 50832, while the ATCC strain must be re-adapted by several passages through mice in order to regain the strain's original characteristics of differentiation and virulence.
Epimastigotes were axenially cultured in brain heart infusion medium (BHI, Becton, Dickinson, Cat. No. 221812) supplemented with 10 mg of hemin per liter and 5% heat inactivated fetal calf serum (FCS) at 28° C. with shaking (˜80 rpm) up to a maximum of 10-12 passages, before the cultures were aged to obtain metacyclics that were purified on a DE-52 column (Whatman DEAE cellulose ion exchange column, Waco, Cat. No. 17050-03 or 17050-04) and injected into mice. After 2-4 weeks parasites were recovered from blood and placed back into axenic culture.
Stock solutions of Miltefosine and Benznidazol in concentrations of 10 mg/ml and 20 mg/ml dissolved in methanol were used. Stock solutions were serially diluted with a factor of 2 in BHI-FCS medium. For Benznidazol the following testing concentrations were used: 80 μg/ml, 40 μg/ml, 20 μg/ml, 10 μg/ml, 5 μg/ml and 2.5 μg/ml. The testing concentrations for Miltefosine were 20 μg/ml, 10 μg/ml, 5 μg/ml, 2.5 μg/ml, 1.25 μg/ml and 0.625 μg/ml.
2×10^6 epimastigotes were incubated in BHI-FCS medium with Miltefosine and Benznidazol in a final volume of 200 μl. After 72 h incubation at 28° C., parasite growth was determined by direct counting the number of parasites with a Neubauer chamber. The 50% inhibitory concentrations were determined by linear regression analysis.

Experiment [11] relates to Trypanosoma cruzi (Tulahuan-LACZ amstigotes in PEM). The experiment is described as follows: In vitro drug activity assay, protozoon A. The experiment is classed as cell-based. To be noted: amastigotes in murine peritoneal macrophages, 3 days. As for the experimental part: In vitro activity of selected compounds of the invention against different protozoa was assessed as follows.
Murine (CD1) peritoneal macrophages were harvested 24 hours after starch induction and dispensed into 96-well plates at a concentration of 4×10^5 mL. After 24 hours, the cells were infected with Trypanosoma cruzi Tulahuan LAC-Z amastigotes (grown and cultured according to Buckner et al., Infection and Immunity 1999, 67(1): 403-409). 24 hours later, the infected cells were exposed to the test compounds (compounds of the invention as well as known prior art compounds) for 3 days and 50 μL of 500 μM CPRG-1% Nonidet P-40 was added to each well. The plates were read after 2 to 5 hours at 570 nm (Buckner et al., Antimicrobial Agents and Chemotherapy 1996, 40(11): 2592-2597). ED50 values were calculated with Msxlfit (IDBS).
The following protozoa were assessed: • A) Trypanosoma cruzi (Tulahuan-LACZ amstigotes in PEM, Lorente S O et al., Antimicrobial agents and chemotherapy 2004, 48(8): 2937-2950; Buckner et al., Infection and Immunity 1999, 67(1): 403-409; Buckner et al., Antimicrobial Agents and Chemotherapy 1996, 40(11): 2592-2597) • B) Trypanosoma brucei rhodesiense (strain STIB900, Lorente S O et al., Antimicrobial agents and chemotherapy 2004, 48(8): 2937-2950; Habtemariam S, BMC Pharmacology 2003, 3:6) • C) Plasmodium falciparum (strain K1, Korsinczky M et al., Antimicrobial agents and chemotherapy 2000, 44(8): 2100-2108; Thaitong S and Beale G H, Trans. R. Soc. Trop. Med. Hyg. 1981, 75: 271-273; Trager W and Jensen J B, Science 1976, 193: 673-675) • D) Plasmodium faiciparum (strain 3D7, Mu et al., PLoS Biology 2005, 3(10): e335)

The next experiment relates to Leishmaniasis. To be noted: clinical phase III trials, parenteral; cited from earlier work.

For `CCCCCCCCCCCCCCCCOP(=O)([O-])OCC[N+]1(C)CCCCCC1` [Compound 89, Phosphoric acid hexadecyl ester 2-(1-methyl-azepan-1-yl)-ethyl ester], the minimum inhibitory concentration (MIC) is 4 µg/mL (≈ 8.66 µM) in experiment [1], 4 µg/mL (≈ 8.66 µM) in experiment [2] and 8 µg/mL (≈ 17.3 µM) in [4]. The inhibition at 100 µM in experiment [3] is 26.1%. Moreover, the inhibition at 31.6 µM in [5] was 11.3%; in [6] it was 50.6%. The “Mean % INH” value in experiment [7] was 29.3%.

Take `CCCCCCCCCCCCCCCCOP(=O)([O-])OCC[N+](C)(C)c1ccccc1` [Compound 107, Phosphoric acid hexadecyl ester 2-(N-phenyl-N,N-dimethyl-amino)-ethyl ester]: the MIC in experiment [1] is 4 µg/mL (≈ 8.52 µM); in experiment [2], 4 µg/mL (≈ 8.52 µM); in experiment [8] it was 8 µg/mL (≈ 17 µM); in experiment [9], 64 µg/mL (≈ 136 µM); in [4] it was 8 µg/mL (≈ 17 µM).

Consider `O=C(Cn1ccnc1[N+](=O)[O-])NCc1ccccc1` [benznidazole, N-Benzyl-2-nitroimidazol-1-yl-acetamide], for which the “Epimastigotes [amount/mL]” value in experiment [10] (benznidazole 5 ug/mL) is listed as 455.833 amount/mL; in experiment [10] (benznidazole 10 ug/mL), 358.333 amount/mL; in experiment [10] (benznidazole 40 ug/mL) it was 190.000 amount/mL. Besides, in experiment [11], the “ED50 (μg/mL), protozoon A” value was 0.22 µg/mL (≈ 0.845 µM).

`NC[C@@H]1O[C@H](O[C@H]2[C@@H](O)[C@H](O[C@@H]3[C@@H](O)[C@H](N)C[C@H](N)[C@H]3O[C@H]3O[C@H](CO)[C@@H](O)[C@H](O)[C@H]3N)O[C@@H]2CO)[C@H](N)[C@@H](O)[C@@H]1O` [paromomycin, O-2-amino-2-deoxy-alpha-D-glucopyranosyl-(1-4)-O-[O-2,6-diamino-2,6-dideoxy-beta-L-idopyranosyl-(1-3)-beta-D-ribofuranosyl-(1-5)]-2-deoxy-D-streptamine]: the “efficient in % of the cases” value in the experiment on Leishmaniasis was 95%.
